ChEMBL document CHEMBL1201862, “PubChem BioAssay data set” (2004)
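A five-concentration, 48-hour dose response in 96-well plates underlies each endpoint, interpolated linearly between surrounding concentrations. Here, GI50 denotes the concentration required for 50% inhibition of growth.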 Calls of active or inactive are those of the source. Cut-off read from the data, not from the text of the source: active = GI50 up to about 1.1 µM and inactive = higher.

Experiments:
Assay in all cases: DTP human tumour cell line panel, 48 h
786-0 = tested on: 786-0
A498 = tested on: A498
A549 = tested on: A549
CAKI-1 = tested on: CAKI-1
HCC 2998 = tested on: HCC 2998
HCT-15 = tested on: HCT-15
HT-29 = tested on: HT-29
MCF7 = tested on: MCF7
MDA-N = tested on: MDA-N
MOLT-4 = tested on: MOLT-4
Malme-3M = tested on: Malme-3M
NCI/ADR-RES = tested on: NCI/ADR-RES
OVCAR-3 = tested on: OVCAR-3
OVCAR-8 = tested on: OVCAR-8
SNB-75 = tested on: SNB-75
SW-620 = tested on: SW-620
TK-10 = tested on: TK-10
U-251 = tested on: U-251
UACC-257 = tested on: UACC-257
UACC-62 = tested on: UACC-62

SMILES	GI50 (786-0)	GI50 (A498)	GI50 (A549)	GI50 (CAKI-1)	GI50 (HCC 2998)	GI50 (HCT-15) [µM]	GI50 (HT-29)	GI50 (MCF7)	GI50 (MDA-N)	GI50 (MOLT-4)	GI50 (Malme-3M)	GI50 (NCI/ADR-RES)	GI50 (OVCAR-3)	GI50 (OVCAR-8)	GI50 (SNB-75)	GI50 (SW-620)	GI50 (TK-10)	GI50 (U-251)	GI50 (UACC-257)	GI50 (UACC-62)
N/C(=N\Nc1ccc(Cl)cc1)c1cnccn1	68.7 µM (inactive)	> 100 µM (inactive)	> 100 µM (inactive)	> 100 µM (inactive)	22.9 µM (inactive)	21.4	32.3 µM (inactive)	38.5 µM (inactive)	10.4 µM (inactive)	39.8 µM (inactive)	95.9 µM (inactive)	44 µM (inactive)	64.3 µM (inactive)	> 100 µM (inactive)	> 100 µM (inactive)	> 100 µM (inactive)	> 100 µM (inactive)	> 100 µM (inactive)	28.3 µM (inactive)	5.04 µM (inactive)
CCOC(=O)c1c(-c2ccc(Cl)cc2)c(C#N)c(=S)n(C2OC(COC(C)=O)C(OC(C)=O)C(OC(C)=O)C2OC(C)=O)c1C (stereo not given)	> 100 µM (inactive)	74 µM (inactive)	> 100 µM (inactive)	> 100 µM (inactive)	> 100 µM (inactive)	> 100	> 100 µM (inactive)	> 100 µM (inactive)	> 100 µM (inactive)	> 100 µM (inactive)	> 100 µM (inactive)	> 100 µM (inactive)	> 100 µM (inactive)	> 100 µM (inactive)	0.689 µM (active)	> 100 µM (inactive)	> 100 µM (inactive)	> 100 µM (inactive)	> 100 µM (inactive)	> 100 µM (inactive)
CCc1c(Cl)nc(Cl)nc1Cl	0.122 µM (active)	5.79 µM (inactive)	1.95 µM (inactive)	0.0484 µM (active)	0.214 µM (active)	0.0348	0.121 µM (active)	0.0578 µM (active)	0.259 µM (active)	0.0173 µM (active)	0.0509 µM (active)	0.382 µM (active)	0.104 µM (active)	0.299 µM (active)	1.17 µM (inactive)	0.0449 µM (active)	1.58 µM (inactive)	0.331 µM (active)	0.448 µM (active)	0.528 µM (active)
COc1ccc(OC)c2nc3c(C(=O)NCCN(C)C)cccc3nc12	3.05 µM (inactive)	13.9 µM (inactive)	3.37 µM (inactive)	3.22 µM (inactive)	5.77 µM (inactive)	4.74	1.8 µM (inactive)	3.48 µM (inactive)	4.52 µM (inactive)	2.8 µM (inactive)	8.65 µM (inactive)	5.25 µM (inactive)	4.93 µM (inactive)	2.54 µM (inactive)	11.7 µM (inactive)	1.77 µM (inactive)	4.63 µM (inactive)	4.21 µM (inactive)	3.88 µM (inactive)	7.71 µM (inactive)
COc1ccc(C(=O)N(Cc2cccnc2)C(=S)N(Cc2cccnc2)C(=O)c2ccc(OC)cc2)cc1	> 100 µM (inactive)	> 100 µM (inactive)	> 100 µM (inactive)	86.9 µM (inactive)	> 100 µM (inactive)	> 100	> 100 µM (inactive)	> 100 µM (inactive)	> 100 µM (inactive)	> 100 µM (inactive)	> 100 µM (inactive)	75.2 µM (inactive)	> 100 µM (inactive)	66.8 µM (inactive)	17.2 µM (inactive)	> 100 µM (inactive)	> 100 µM (inactive)	55.2 µM (inactive)	> 100 µM (inactive)	> 100 µM (inactive)
Nc1cc(S(N)(=O)=O)ccc1SSc1ccc(S(N)(=O)=O)cc1N	> 100 µM (inactive)	> 100 µM (inactive)	> 100 µM (inactive)	> 100 µM (inactive)	> 100 µM (inactive)	> 100	> 100 µM (inactive)	> 100 µM (inactive)	> 100 µM (inactive)	62.7 µM (inactive)	> 100 µM (inactive)	> 100 µM (inactive)	> 100 µM (inactive)	> 100 µM (inactive)	> 100 µM (inactive)	> 100 µM (inactive)	> 100 µM (inactive)	> 100 µM (inactive)	> 100 µM (inactive)	> 100 µM (inactive)
COc1cc(C2C=C(c3ccccc3)Oc3cc4c(cc32)OCO4)cc(OC)c1OC (stereo not given)	0.386 µM (active)	0.495 µM (active)	0.2 µM (active)	0.507 µM (active)	0.341 µM (active)	0.324	0.324 µM (active)	0.409 µM (active)	0.249 µM (active)	0.43 µM (active)	0.527 µM (active)	0.312 µM (active)	0.324 µM (active)	0.502 µM (active)	2.4 µM (inactive)	0.406 µM (active)	> 36.2 µM (inactive)	0.449 µM (active)	3.33 µM (inactive)	0.446 µM (active)
NC(=O)CSc1c2cc(O)ccc2nc2ccc(O)cc12	> 10 µM (inactive)	> 10 µM (inactive)	> 10 µM (inactive)	> 10 µM (inactive)	> 10 µM (inactive)	> 10	> 10 µM (inactive)	> 10 µM (inactive)	> 10 µM (inactive)	> 10 µM (inactive)	> 10 µM (inactive)	> 10 µM (inactive)	> 10 µM (inactive)	> 10 µM (inactive)	> 10 µM (inactive)	> 10 µM (inactive)	> 10 µM (inactive)	> 10 µM (inactive)	> 10 µM (inactive)	> 10 µM (inactive)
COc1cccc(NC(=O)CC(=O)N2N=C(C)C(/N=N\c3ccc(S(=O)(=O)c4ccc(/N=N/C5C(=O)N(C(=O)CC(=O)Nc6cccc(OC)c6)N=C5C)cc4)cc3)C2=O)c1 (stereo not given)	> 100 µM (inactive)	> 100 µM (inactive)	> 100 µM (inactive)	> 100 µM (inactive)	> 100 µM (inactive)	> 100	> 100 µM (inactive)	> 100 µM (inactive)	> 100 µM (inactive)	> 100 µM (inactive)	58.9 µM (inactive)	> 100 µM (inactive)	> 100 µM (inactive)	> 100 µM (inactive)	> 100 µM (inactive)	> 100 µM (inactive)	> 100 µM (inactive)	> 100 µM (inactive)	> 100 µM (inactive)	> 100 µM (inactive)
CCOC(=O)C1C(=O)CC(O)(OCC)C(C(=O)OCC)C1c1ccc(OC)cc1 (stereo not given)	> 100 µM (inactive)	> 100 µM (inactive)	> 100 µM (inactive)	> 100 µM (inactive)	> 100 µM (inactive)	> 100	> 100 µM (inactive)	> 100 µM (inactive)	> 100 µM (inactive)	> 100 µM (inactive)	> 100 µM (inactive)	> 100 µM (inactive)	> 100 µM (inactive)	> 100 µM (inactive)	> 100 µM (inactive)	> 100 µM (inactive)	> 100 µM (inactive)	> 100 µM (inactive)	> 100 µM (inactive)	> 100 µM (inactive)
Oc1ccc(/C=C\c2nnc(/C=C\c3ccc(O)c(O)c3)s2)cc1O	5.97 µM (inactive)	9.16 µM (inactive)	6.31 µM (inactive)	5.14 µM (inactive)	8.32 µM (inactive)	3.85	36.1 µM (inactive)	3 µM (inactive)	4.68 µM (inactive)	1.08 µM (active)	2.03 µM (inactive)	7.67 µM (inactive)	3.69 µM (inactive)	4.56 µM (inactive)	5.26 µM (inactive)	1.49 µM (inactive)	6.53 µM (inactive)	4.07 µM (inactive)	8.34 µM (inactive)	3.82 µM (inactive)
CCCCCCCCCCCC(=O)NCc1ccc(OC(=O)CCCCCCCCCCC)c(OC)c1	> 100 µM (inactive)	> 100 µM (inactive)	> 100 µM (inactive)	> 100 µM (inactive)	> 64.6 µM (inactive)	> 100	37.8 µM (inactive)	35.3 µM (inactive)	61.4 µM (inactive)	2.75 µM (inactive)	> 100 µM (inactive)	> 100 µM (inactive)	31.9 µM (inactive)	67.9 µM (inactive)	> 100 µM (inactive)	> 100 µM (inactive)	> 100 µM (inactive)	> 100 µM (inactive)	> 100 µM (inactive)	> 96.4 µM (inactive)
COc1cccc(C2CC(C)(O)Oc3cc4c(cc32)OCO4)c1O (stereo not given)	24.8 µM (inactive)	41.7 µM (inactive)	34.4 µM (inactive)	39.4 µM (inactive)	25.6 µM (inactive)	21.7	21.4 µM (inactive)	11.4 µM (inactive)	2.72 µM (inactive)	37.4 µM (inactive)	29.2 µM (inactive)	19.7 µM (inactive)	15.6 µM (inactive)	25.7 µM (inactive)	14.2 µM (inactive)	22.8 µM (inactive)	39.7 µM (inactive)	24.2 µM (inactive)	39.4 µM (inactive)	15.7 µM (inactive)
COc1cc(/C=C/C(=N\NS(=O)(=O)c2ccc(C)cc2)c2sc(NNC(C)=O)nc2C)ccc1O	> 100 µM (inactive)	> 100 µM (inactive)	> 100 µM (inactive)	> 100 µM (inactive)	> 100 µM (inactive)	> 100	> 100 µM (inactive)	> 100 µM (inactive)	> 100 µM (inactive)	> 100 µM (inactive)	> 100 µM (inactive)	> 100 µM (inactive)	> 100 µM (inactive)	> 100 µM (inactive)	> 100 µM (inactive)	> 100 µM (inactive)	> 100 µM (inactive)	> 100 µM (inactive)	> 100 µM (inactive)	> 100 µM (inactive)
